# Results from patent US11000511B2, “Chemical compounds as antibiotics” (priority 2017, dated 2021).
# What was measured:
# [1] = biological target: T1, LasB elastase activity in dialysed supernatant from P. aeruginosa strain PA01 (Pseudomonas aeruginosa, UniProt P14756); experiment: Elastin Congo Red assay to determine % inhibition (Assay 1); assay type: biochemical; settings: read-out: Elastin hydrolysis % inhibition @ 50/25 μM inhibitor concentration Assay 1
# T1 construct: uses as source of enzyme dialysed supernatant from P. aeruginosa; endogenous in cells; host or cells: P. aeruginosa strain PA01 culture supernatant, filtered and dialysed
# Description: (§1) Experiments were therefore conducted (1) to measure the potency of inhibition of compounds of the invention against purified Pseudomonas aeruginosa LasB enzyme and also experiments were conducted (2) to measure the ability of compounds of the invention to inhibit LasB-catalysed elastin degradation. The first assay uses a commercial fluorescent synthetic peptide and purified LasB enzyme. The LasB hydrolysis kinetics are measured allowing the determination of the IC50 and Ki of the inhibitors; the second is a more physiological assay using dialysed Pseudomonas aeruginosa supernatant as source of enzyme, plus its natural substrate Elastin. It is an “end point assay” that determines the percentage of LasB inhibition by each compound for one particular time point and inhibitor concentration. Technical details are described below:
# The Elastin assay uses as source of enzyme dialysed supernatant from P. aeruginosa and the elastin congo red as substrate. The natural LasB substrate, elastin, is complexed with the congo red dye (Elastin Congo Red, ECR). The elastolysis activity from the culture supernatant will degrade elastin and release the congo red dye into the supernatant. This red dye release can be measured with a spectrophotometer. Some compounds of Formula (I) were assessed using the method of Assay 1 (described below). Other compounds of Formula (I) were assessed using the alternative but equivalent method of Assay 2 (described below).
# Method (Assay 1): To determine LasB elastase activity and assess compound inhibition, an overnight culture of P. aeruginosa strain PA01 is diluted thousand-fold in LB medium. This diluted solution is incubated during 19 hours in a shaking incubator. Culture supernatants are recovered by centrifugation and filtrated through a […] filter. These supernatants are dialysed (filtration molecules <20 kDa) into a 50 mM Tris pH 7.4, 2.5 mM CaCl2 solution at 4° C. under agitation for 24 hours. Supernatant dialysed is then mixed volume/volume with the ECR suspension (20 mg/mL of ECR in 100 mM Tris buffer supplemented with 1 mM CaCl2) supplemented with TritonX 100 (final concentration of 0.01%) in presence of different concentrations of compound (routinely 50 and 25 μM). The mixed reaction is then incubated for 24 hours in a 37° shaking incubator. As a negative control, the mixed supernatant is replaced by Tris solution (50 mM Tris pH 7.4, 2.5 mM CaCl2). The reaction supernatant is recovered by centrifugation and the release of congo red is measured by its absorbance at OD520. Percentage inhibition is determined using the following equation: (OD520 value of DMSO SN−OD520 value of LB)−(OD520 value of Compound SN−OD520 value of LB)/(OD520 value of DMSO SN−OD520 value of LB)×100.
# [2] = biological target: T2, purified LasB protein from P. aeruginosa (Pseudomonas aeruginosa, UniProt P14756); experiment: Fluorometric assay to determine Ki (Assay 1); assay type: biochemical; settings: Ki (μM) Assay 1, purified LasB, substrate Abz-Ala-Gly-Leu-Ala-p-Nitro-Benzyl-Amide 250 μM, Ki calculated from IC50; inhibitor 0.006 to 200 μM
# T2 construct: purchased Merck or Charles River Laboratories
# Description: as §1
# This assay uses commercially available substrate (Abz-Ala-Gly-Leu-Ala-p-Nitro-Benzyl-Amide (Ex: 340 nm, Em: 415 nm) from Peptide International) and purified LasB protein from P. aeruginosa (provided by Merck or Charles River Laboratories). It is performed to determine LasB elastase activity and assess compound inhibition in 96-well plate format. Some compounds of Formula (I) were assessed using the method of Assay 1 (described below). Other compounds of Formula (I) were assessed using the alternative but equivalent method of Assay 2 (described below).
# Method: 10 to 140 ng/ml purified LasB is incubated with 250 μM Abz-Ala-Gly-Leu-Ala-p-Nitro-Benzyl-Amide in 50 mM Tris-HCl pH 7.4, 2.5 mM CaCl2), 0.01% of Triton X100 at 37° C. LasB activity (corresponding to fluorescence emission induced by substrate hydrolysis) is measured over 30 min at 37° C. with a fluorescence plate reader such as the Perkin Elmer Envision or similar. Different range of inhibitor concentrations are routinely assessed depending of inhibitor potency from 0.006 to 200 μM (Assay 1; 2-fold dilutions series) or from 0.0016 to 200 μM (Assay 2; 2-fold dilutions series) in order to determine IC50.
# The equation used to calculate the Ki from IC50 is: Ki=IC50/(1+([S]/Km)) where [S]=250 μM and Km=214 μM.
# T1 sequence (P14756 198-498): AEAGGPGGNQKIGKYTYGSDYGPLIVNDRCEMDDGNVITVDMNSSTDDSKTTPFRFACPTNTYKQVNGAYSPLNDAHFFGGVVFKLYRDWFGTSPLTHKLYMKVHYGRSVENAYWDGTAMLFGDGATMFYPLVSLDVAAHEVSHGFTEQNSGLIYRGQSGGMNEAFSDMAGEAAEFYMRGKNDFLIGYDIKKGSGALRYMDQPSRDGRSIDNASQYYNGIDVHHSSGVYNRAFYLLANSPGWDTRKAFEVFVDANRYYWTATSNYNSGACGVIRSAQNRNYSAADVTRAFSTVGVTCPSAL
# T2 sequence (P14756 198-498): as above
SMILES,inhibition at 50 µM [1] [%],Ki [2] [µM]
"C[N+](C)(C)CC#Cc1ccc2nc(CNC(=O)C3(CC(=O)[O-])Cc4ccccc4C3)sc2c1 [Example 86, 2-[2-[[6-[3-(trimethylammonio)prop-1-ynyl]-1,3-benzothiazol-2-yl]methylcarbamoyl]indan-2-yl]acetate]",> 60,< 0.3
"N[C@@H]1CCN(c2ccc3nc(CNC(=O)C4(CC(=O)O)Cc5ccccc5C4)sc3c2)C1 [Example 102, 2-[2-[[6-[(3R)-3-aminopyrrolidin-1-yl]-1,3-benzothiazol-2-yl]methylcarbamoyl]indan-2-yl]acetic acid]",> 60,< 0.3
"Cc1ccc2oc(CNC(=O)C3(CC(=O)O)Cc4ccccc4C3)cc2c1 [Example 6, 2-(2-{[(5-methyl-1-benzofuran-2-yl)methyl]carbamoyl}-2,3-dihydro-1H-inden-2-yl)acetic acid]",> 60,< 0.3
"O=C(O)CC1(C(=O)NCc2nc3ccccc3[nH]2)Cc2ccccc2C1 [Example 51, 2-(2-(((1H-benzo[d]imidazol-2-yl)methyl)carbamoyl)-2,3-dihydro-1H-inden-2-yl)acetic]",15 to 30,2 to 10
"CN(C)CCOc1ccc2sc(CNC(=O)C3(CC(=O)O)Cc4ccccc4C3)nc2c1 [Example 112, 2-[2-[[5-[2-(dimethylamino)ethoxy]-1,3-benzothiazol-2-yl]methylcarbamoyl]indan-2-yl]acetic acid]",> 60,< 0.3
"NCCCc1ccc2nc(CNC(=O)C3(CC(=O)O)Cc4ccccc4C3)sc2c1 [Example 38, 2-[2-[[6-(3-aminopropyl)-1,3-benzothiazol-2-yl]methylcarbamoyl]indan-2-yl]acetic acid]",> 60,0.3 to 2
"CN(C)C1CN(c2ccc3nc(CNC(=O)C4(CC(=O)O)Cc5ccccc5C4)sc3c2)C1 [Example 67, 2-(2-(((6-(3-(dimethylamino)azetidin-1-yl)benzo[d]thiazol-2-yl)methyl)carbamoyl)-2,3-dihydro-1H-inden-2-yl)acetic acid]",> 60,0.3 to 2
"O=C(O)CC1(C(=O)NCc2nccs2)Cc2ccccc2C1 [Example 54, 2-(2-((thiazol-2-ylmethyl)carbamoyl)-2,3-dihydro-1H-inden-2-yl)acetic acid]",> 60,0.3 to 2
"NCCNc1ccc2sc(CNC(=O)C3(CC(=O)O)Cc4ccccc4C3)nc2c1 [Example 72, 2-[2-[[5-(2-aminoethylamino)-1,3-benzothiazol-2-yl]methylcarbamoyl]indan-2-yl]acetic acid]",> 60,0.3 to 2
"NCCc1ccc2nc(CNC(=O)C3(CC(=O)O)Cc4ccccc4C3)sc2c1 [Example 80, 2-[2-[[6-(2-aminoethyl)-1,3-benzothiazol-2-yl]methylcarbamoyl]indan-2-yl]acetic acid]",> 60,0.3 to 2
"O=C(O)CC1(C(=O)NC2CCN(c3cccc(Cl)c3)C2)Cc2ccccc2C1 (centres unmarked) [Example 8, 2-[2-[[1-(3-chlorophenyl)pyrrolidin-3-yl]carbamoyl]indan-2-yl]acctic acid]",> 60,< 0.3
"O=C(O)CC1(C(=O)NCc2cc3ccccc3s2)Cc2ccccc2C1 [Example 23, 2-[2-(benzothiophen-2-ylmethylcarbamoyl)indan-2-yl]acetic acid]",30 to 60,< 0.3
"O=C(O)CC1(C(=O)NCCc2c[nH]c3ccccc23)Cc2ccccc2C1 [Example 14, 2-[2-[2-(1H-indol-3-yl)ethylcarbamoyl]indan-2-yl]acetic acid]",30 to 60,< 0.3
"C[N+](C)(C)CCNC(=O)[C@H](Cc1c[nH]c2ccccc12)NC(=O)C1(CC(=O)O)Cc2ccccc2C1 [Example 46, (2-{[(1S)-2-(1H-indol-3-yl)-1-{[2-(trimethylammonio)ethyl]carbamoyl}ethyl]carbamoyl}-1,3-dihydroinden-2-yl)acetate]",30 to 60,2 to 10
"CN(C)CCCc1ccc2nc(CNC(=O)C3(CC(=O)O)Cc4ccccc4C3)sc2c1 [Example 36, 2-[2-[[6-[3-(dimethylamino)propyl]-1,3-benzothiazol-2-yl]methylcarbamoyl]indan-2-yl]acetic acid]",> 60,< 0.3
"O=C(O)CC1(C(=O)NCc2ccccc2)Cc2ccccc2C1 [Example 16, 2-[2-(benzylcarbamoyl)indan-2-yl]acetic acid]",30 to 60,2 to 10
"C[N+](C)(C)CCOc1ccc2nc(CNC(=O)C3(CC(=O)[O-])Cc4ccccc4C3)sc2c1 [Example 111, 2-[2-[[6-[2-(trimethylammonio)ethoxy]-1,3-benzothiazol-2-yl]methylcarbamoyl]indan-2-yl]acetate]",30 to 60,0.3 to 2
"COc1ccc2nc(CNC(=O)C3(CC(=O)O)Cc4ccccc4C3)sc2c1 [Example 32, 2-[2-[(6-methoxy-1,3-benzothiazol-2-yl)methylcarbamoyl]indan-2-yl]acetic acid]",> 60,< 0.3
"O=C(O)CC1(C(=O)NCc2cc3ccccc3cn2)Cc2ccccc2C1 [Example 2, 2-[2-(3-isoquinolylmethylcarbamoyl)indan-2-yl]acetic acid]",30 to 60,0.3 to 2
"Cn1c(CNC(=O)C2(CC(=O)O)Cc3ccccc3C2)nc2ccccc21 [Example 56, 2-(2-(((1-methyl-1H-benzo[d]imidazol-2-yl)methyl)carbamoyl)-2,3-dihydro-1H-inden-2-yl)acetic acid]",30 to 60,0.3 to 2
"O=C(O)CC1(C(=O)NCc2nc3c(N4CCOCC4)cccc3s2)Cc2ccccc2C1 [Example 66, 2-(2-(((4-morpholinobenzo[d]thiazol-2-yl)methyl)carbamoyl)-2,3-dihydro-1H-inden-2-yl)acetic acid]",> 60,0.3 to 2
"O=C(O)CC1(C(=O)N[C@@H](Cc2ccc(O)cc2)C(=O)O)Cc2ccccc2C1 [Example 49, (2-(carboxymethyl)-2,3-dihydro-1H-indene-2-carbonyl)-L-tyrosine]",> 60,0.3 to 2
"CN(C)C[C@H]1C[C@@H](c2ccc3nc(CNC(=O)C4(CC(=O)O)Cc5ccccc5C4)sc3c2)C1 [Example 93, 2-(2-(((6-((1s,3s)-3-((dimethylamino)methyl)cyclobutyl)benzo[d]thiazol-2-yl)methyl)carbamoyl)-2,3-dihydro-1H-inden-2-yl)acetic acid]",> 60,< 0.3
"NC(=O)[C@H](Cc1c[nH]c2ccccc12)NC(=O)C1(CC(=O)O)Cc2ccccc2C1 [Example 52, (S)-2-(2-((1-amino-3-(1H-indol-3-yl)-1-oxopropan-2-yl)carbamoyl)-2,3-dihydro-1H-inden-2-yl)acetic acid]",> 60,< 0.3
"NCCNc1ccc2nc(CNC(=O)C3(CC(=O)O)Cc4ccccc4C3)sc2c1 [Example 69, 2-[2-[[6-(2-aminoethylamino)-1,3-benzothiazol-2-yl]methylcarbamoyl]indan-2-yl]acetic acid]",> 60,0.3 to 2
